Data: patent publication US7288671B2, “Interleukin-1 and tumor necrosis factor-α modulators, synthesis of said modulators and their enantiomers and methods of using said modulators” (Nereus Pharmaceuticals, Inc., priority 1999, dated 2007)

Experiments:
[1] = tested on: TNF-α synthesis of THP-1 cells; assay: LPS-induced TNF-α production in PMA-differentiated THP-1 cells (FLISA); assay type: cell-based, human; conditions: THP-1, LPS
Procedure: (§1) The ability to inhibit TNF-α production was analyzed in THP-1 cells, a human acute monocytic leukemia cell line that is widely used to assess monocyte functions. In order to induce maturation, THP-1 cells were plated at 1×10^6 cells/ml and pretreated with 5 nM PMA for two days. Differentiated THP-1 cells were pretreated with various concentrations of NPI-1302a-3 or its analogs for 1 hour, followed by a 4 hour incubation with 1 μg of LPS (Sigma, St. Louse, Mo.). The P38 inhibitor (10 μM, SB 203580; Sigma, St. Louis, Mo.) was used as a positive control. Supernatants were collected and stored at −80° C. until assayed for TNF-α activity. A resazurin assay was performed for each analog to evaluate the effects on cell metabolism and viability.
To detect the presence of human TNFα, fluorescent linked immunosorbent assay or FLISA was developed and optimized. 100 μl of beads (6 μm, Spherotech) coated with goat anit-mouse IgG (1 mg/ml, R and D Systems) were mixed with 4 μl of biotin-anti-hTNFα mouse IgG (0.1 mg/ml, R and D Systems) and 2 μl of FMAT Blue-streptavidin (0.1 mg/ml, Applied Biosystems). 50 μl of the mixtures was combined with 50 μl of the supernatant isolated from treated THP-1 cells and added to the black wall FLISA plates (Applied Biosystems) and incubated overnight. The plates were scanned at factory set PMT setting, and the values were plotted and analyzed by Applied Biosystems software.

THP-1 cells = assay: Resazurin (alamarBlue) cell viability assay in differentiated THP-1 cells; assay type: cell-based, human; conditions: footnote marks: * mild, ** marked reduction in viability, in % (unit assumed)
Procedure: as §1
A preparation of the dye resazurin, commercially-available as alamarBlue™ (Biosource International Inc.; 820 Flynn Road, Camarillo, Calif.), was used for the cytotoxicity assays described herein. The assays and experiments described herein were conducted in substantially the same manner as described in the scientific literature, for example, in Magnani, E and Bettini, E., “Resazurin detection of energy metabolism changes in serum-starved PC12 cells and of neuroprotective agent effect,” Brain Res Protoc., Jul. 5, 2000(3):266-72 and in Nociari M. M., Shalev A., Benias P., and Russo C. J, “A novel one-step, highly sensitive fluorometric assay to evaluate cell-mediated cytotoxicity,” Immunol.Methods 213, 157-167 (1998), see also U.S. Pat. No. 5,501,959, entitled “Antibiotic and Cytotoxic Drug Susceptibility Assays using Resazurin and Poising Agents,” the entire specification of which is incorporated herein by reference.

COX-2 (cyclooxygenase-2) = conditions: cited from earlier work
[2] = tested on: iNOS (inducible nitric oxide synthase); conditions: cited from earlier work
IL-6 synthesis = assay: SAC-induced IL-6 synthesis, RAW 264.7 macrophage cells; assay type: cell-based, Murine
Procedure: Murine macrophage cells RAW 264.7 (1×10^6/ml) were pretreated for 30-60 minutes with varying doses of the synthetic compound of Formula (I), the synthetic compound of formula (I) and a panel of analogs (diluted in 0.5% DMSO) prior to stimulation with various agents such as lipopolysaccharide (LPS) or a gram positive agent like heat-killed Staph aureus (SAC). Supernatants collected over a 72-hour period will be assayed for the levels of TNF-α, IL-1, IL-6, IL-10, IL-12 and other cytokines either by elisa or bioassay. Additional studies to evaluate the effects of the synthetic compound of Formulae (I), (II), (IIA) and (IIB) on cytokine signaling pathways such as, for example, Caspase-activity (Nr-1, Nr.3), transcription factors such as NF-kB, MAP-kinase activity (p38, ERK and JNK) will also be performed.

Compound | Percent TNF-α Inhibition ([1]; 100 ng/ml) [%] | Percent TNF-α Inhibition ([1]; 1 ug/ml) [%] | Percent TNF-α Inhibition ([1]; 10 ug/ml) [%] | Cell Viability (THP-1 cells; 100 ng/ml) | Cell Viability (THP-1 cells; 1 ug/ml) | Cell Viability (THP-1 cells; 10 ug/ml) | fold more active than any other known triterpenoid in suppressing COX-2 (COX-2 (cyclooxygenase-2)) [fold] | fold more active than any other known triterpenoid in suppressing iNOS [2] [fold] | inhibition at 0.1 µg/mL ([1]; Homo sapiens, 100 ng/ml, read-out: Percent TNF-α Inhibition) [%] | inhibition at 1 µg/mL ([1]; Homo sapiens, 1 ug/ml, read-out: Percent TNF-α Inhibition) [%] | inhibition at 10 µg/mL ([1]; Homo sapiens, 10 ug/ml, read-out: Percent TNF-α Inhibition) [%] | inhibition of IL-6 synthesis (IL-6 synthesis)
C=CC1(C)CCC=C2C1CCC1C(C)(COC(=O)CCC(=O)O)CCCC21C (stereo not shown) [CC-3-17] | 10 | 20 | 25 | 90* | 85* | 75** | – | – | – | – | – | –
C=CC1(C)CCC=C2C1CCC1C(C)(CNCCN)CCCC21C (racemic) [CC-3-13 ra] | 10 | 50 | 95 | 95* | 75** | 20** | – | – | – | – | – | –
C=CC1(C)CCC=C2C1CCC1C(C)(COC(C)=O)CCCC21C (stereo not shown) [LT-1-46] | 0 | 0 | 20 | 100 | 90* | 90* | – | – | – | – | – | –
CC1(C)CC[C@]2(C(=O)O)CC[C@]3(C)[C@H](C(=O)C=C4[C@@]5(C)C=C(C#N)C(=O)C(C)(C)[C@@H]5CC[C@]43C)[C@@H]2C1 [Compound 54, 2-cyano-3,12-dioxoolean-1,9-dien-28-oic acid] | – | – | – | – | – | – | 500 | 500 | – | – | – | –
C=CC1(C)CCC=C2C1CCC1C(C)(CC=O)CCCC21C (stereo not shown) [CC-3-14] | 25 | 30 | – | 100 | 100 | – | – | – | – | – | – | –
C=CC1(C)CCC=C2C1CCC1C(C)(C(=O)[O-])CCCC21C.[Na+] (stereo not shown) [TTL-1Na] | – | 40 | 50 | – | 90* | 80* | – | – | – | – | – | –
C=CC1(C)CCC=C2C1CCC1C(C)(C=O)CCCC21C (stereo not shown) [CC-3-09] | 0 | 0 | 10 | 100 | 100 | 100 | – | – | – | – | – | –
C=C[C@@]1(C)CCC=C2[C@H]1CC[C@@H]1[C@](C)(C(=O)O)CCC[C@@]21C [TTL1] | – | – | – | 100 | 100 | – | – | – | 10 | 30 | 50 | neither analog TTL1 nor TTL3 significantly inhibited IL-6 synthesis
